US20060111289A1, “Compositions and methods of using Alpha-fetoprotein growth inhibitory peptides” (Serometrix, LLC,, priority 2004, published 2006)

Assays:
[1] = system: MCF-7 and GI-101 cells; test: ATP luminescence cytostatic assay (6 days); format: cell-based, human; settings: peptide 10^−12 to 10^−8 M
Excerpt: FIG. 2 presents exemplary data for both in vivo and in vitro growth suppressive activities of the GIP-derived P149 and control peptides are depicted in GI-101 human ductal breast carcinoma and in MCF-7 human glandular breast carcinoma. • Panels A and A2: GI-101 and MCF-7 xenograft in nude mice administered P149 time-release pellets for 60 days and 30 days, respectively (N=5 mice/group). • Panels B and B2: GI-101 and MCF-7 in cell cultures treated with P149 and P187 at concentrations from 10-8 to 10-12 M for 6 days and assayed by ATP luminescence reagent employing a luciferin-luciferase system. The ATP assay, used to distinguish between cytostasis versus cytotoxicity, was used to confirm that P149 was cytostatic in its cell inhibitory activity at 6 days (see text for details).
In order to confirm whether P149 was indeed cytostatic, and not cytotoxic, an ATP-based cytostatic assay was performed which measures the decrease in cytosolic ATP during drug (i.e., for example, GIP peptide) treatment. This ATP luminescence assay has long been employed to distinguish between cytostatic versus cytotoxic chemotherapeutic sensitivity of drugs. […] After incubation of the cell cultures for 6 days, cytosolic ATP was extracted, stabilized, and quantitated from a standard curve produced from Berthold LB-96P luminometer readings using a luciferin-luciferase counting reagent.

[2] = system: 6WI-1 mammary tumor cells; test: Mouse ascites mammary tumor assay (6WI-1 isograft); format: in vivo
Protocol: The growth suppression of the mammary ascites tumor by AFP peptides and its fragments P149a, P149b and P149c, and control peptides were determined in non-estrogen dependent assays which measured tumor cell growth and ascites accumulation of 6WI-1 mammary transplanted NYLAR/nya mice. […] Tumor cell inocula included doses of 0.3, 1.0, and 3.0×10^6 cells which produced host mortality at 12-14 days which was lethal in 100% of the animals. Following peptide dose titration studies, mice inoculated with 6WI-1 mammary cells were injected with a previously-determined optimal dose of 1.0 μg peptide per day or saline for 11 days. On day 12 following inoculation, the total accumulated ascites fluid volume and tumor cells in the peritoneal cavity of each animal were harvested and the cell count determined.
Inoculation of mice with all three cell doses led to an increase in body weight from 25 g (day 0) to approximately […] by day 12, due to the accumulation of tumor cells and ascites fluid in the intraperitoneal cavity. An average cell count in accumulated ascites fluid on day 12 was greater than 10^8 cells/ml with a total ascites volume approximating 20 mls. Tumor cell proliferation in this model has been reported to correlate with the volume of ascites fluid accumulated.
The 6WI-1 mouse mammary tumor studies involving peptide and non-peptide treatment were further compared by histopathological analysis performed on hematoxylin/eosin stained tissue sections.

[3] = system: human kidney tumor cell line
[4] = system: MCF-7 and 6WI-1 tumor cells; test: Tumor cell adhesion to ECM proteins in microtiter plates; format: cell-based, human, murine
Protocol: FIG. 8 presents exemplary data showing the inhibition of P149 in the cellular adhesion of cancer cells to extracellular matrix (ECM) proteins for both human MCF-7 breast cancer cells and for murine 6WI-1 ascites-adapted mammary tumor cells. The cellular adhesion assay was performed in 96-well microtiter plates (Nunc Company, Denmark, catalog #263339) and the wells were pre-coated with 100 microliters of each of the above-mentioned ECM proteins for 24 hours as previously determined. After adding tumor cells, the plates were then incubated at 37° C. for various times; while 6WI-1 cells usually required only 2-4 hours incubation for adhesion; MCF-7 cells required 24 hours for attachment following trypsinization. For both cell lines, the cell culture media contained 5% calf serum to ensure cell attachment. The plates were washed twice with Hank's Saline, fixed in 0.5 mL of 37% formaldehyde, stained with crystal violet and read at […] on a microplate reader. Inset: Using a CyQUANT® stain kit, (Hoechst Corp., Germany) the plates were first exposed to a freeze/thaw cycle at −70° C. for 24 hours and 37° C. for 10 minutes. CyQUANT® buffer solution (150 microliters) was added to each well, and the cell adhesion was measured by fluorescence spectroscopy and quantitated using an ImageQuant® plate scanner (Fluorimager 595, Molecular Dynamics, Sunnyvale, Calif.).
This attachment of GIP was a slightly weaker adhesion matrix than was gelatin, chondroitin sulfate, and poly-lysine which approximated 30-35%. Using P149, the optimal amount of peptide required to inhibit tumor cell adhesion was determined by absorbing soluble peptide (1.0 pg to 100 μg) to the walls of microtiter plates. A constant number of MCF-7 tumor cells (i.e., for example, 1×10^5) were then added to the microtiter well and adhesion quantitated by fluorescence. […] The quantitation of MCF-7 and 6WI-1 cell adhesion in the presence of peptide versus peptide-free media was then determined on ECM-coated microtiter plates using 3 μg GIP/well as a competitive inhibitor. The P149 peptide was added to the wells immediately after the cells were dispensed and then the mixture was incubated as described. The AFP peptide was capable of cell adhesion inhibition in most of the ECM proteins in both tumor cell lines. Inhibition of mouse and human tumor cell adhesion was somewhat equivalent using collagen IV, fibrinogen, fibronectin, and thrombospondin. […] Thus, the GIP was found capable of eliciting different attachment inhibitions dependent on the type of ECM protein coating the wall of the microtiter plate and also the tumor cell type involved.

[5] = system: 6WI-1 mammary tumor cells; test: 6WI-1 mammary tumor in 15-day old mouse pups (6 day assay); format: in vivo; design: % Inhibition Of Activity: 6WI-1 Pup Ascites: concentration or dose not given beside the values; settings: mouse pups
Excerpt: As an alternative model of the 6WI-I mammary tumor in adult mice, an inocula of 1×10^6 tumor cells injected into 15-day old mouse pups provided a 6 day rather than a 12 day assay and replicated the same tumor growth suppression by GIP.

[6] = 6WI-1 mouse mammary ascites tumor

KDFIHKQGVALQTMKQELINLVKELVKPQIEAVADFSGLL (listed as Homo sapiens) [P192, reference compound]
Growth inhibition / decrease in cytosolic ATP in the ATP luminescence assay [1]: not significantly different from the non-treated control | % Inhibition Of Activity: 6WI-1 Acites Volume [2, 6]: 0% | % Inhibition Of Activity: 6WI-1 Body Weight [2, 6]: 0% | % Inhibition Of Activity: 6WI-1 Cell Prol [2, 6]: 0% | % Inhibition Of Activity: 6WI-1 Peptide Combos ([2]; peptide combination): 0% | % Inhibition Of Activity: Kidney tumor growth [3]: 0% | % Inhibition Of Activity: Cell Adhesion [4]: 0% | % Inhibition Of Activity: 6WI-1 Pup Ascites [5]: 0%
